Measurements: patent US20110152169A1, “SPARC ANTI-INFLAMMATORY ACTIVITY AND USES THEREOF” (priority 2008, published 2011)

How the values were obtained:
Format in all cases: cell-based, human
[1] = tested on: OVCAR3; assay: Proliferation, CellTiter96 (MTS)
Procedure: (§1) The proliferation of SKOV3 and OVCAR3 transduced or not with Ad-GFP or Ad-GFP-SPARC as described in Example 1, in response to MCP-1, was assessed using a commercially available CellTiter96 kit (Promega) according to the manufacturer' instructions. The number of proliferating cells was determined colorimetrically by measuring the absorbance at 590 nm (0D590) of the dissolved formazan product after the addition of 3 -(4,5 -dimethylthiazol-2-yl)-5-(3 -carboxymethoxyphenyl)-2-(4-sulfophenyl)-2H-tetrazolium (MTS) for 3 hours.
(§2) The proliferation and invasiveness of SKOV3 and OVCAR3 cells, transduced or not with Ad-GFP and Ad-GFP-SPARC, in response to PGE2, was determined as described in Example 3. The results shown in FIG. 5 are expressed as the mean±SEM of three independent experiments performed in quadruplicate (proliferation) or triplicate (invasion). *P<0.05, compared to the matched WT cells or Ad-GFP transduced cells. **P<0.05, compared to NS control cells.

[2] = tested on: SKOV3; assay: Proliferation, CellTiter96 (MTS)
Procedure: as §1, §2

[3] = tested on: OVCAR3; assay: Matrigel invasion assay
Procedure: (§3) The invasiveness of SKOV3 and OVCAR3 transduced or not with Ad-GFP or Ad-GFP-SPARC as described in Example 1, in response to MCP-1, was assessed as previously described (Said et al., Am J Pathol, 167: 1739-52 (2005)). 1×10^5 cells per […] in the presence and absence of MCP-lwere added to the upper chamber of polycarbonate inserts ([…] pore size, Corning Costar, Corning, N.Y.) coated on ice with Growth factor—reduced Matrigel (BD Biosciences, Bedford, Mass.) diluted 1:3 in SFM. In some experiments, cells were pretreated with MCP-1 antibody (25 µg/ml) or its isotype control (50 μg/ml) for 30 minutes before stimulation. The bottom chambers contained complete growth medium. […] The migrated cells were counted in six fields after staining with hemacolor 3 stain (SOURCE?), using an inverted microscope equipped with a DFC 320 digital camera (Leica Microsystems, Wetzlar, Germany) under 200× magnification.
as §2

[4] = tested on: SKOV3; assay: Matrigel invasion assay
Procedure: as §3, §2

[5] = tested on: NF-κB promoter; assay: NF-κB promoter luciferase reporter assay; conditions: SKOV3 and OVCAR3, concentration-dependent up to 5 nM
[6] = tested on: MCP-1; assay: MCP-1 protein secreted in conditioned medium, ELISA; conditions: 50 μM LPA
Procedure: Ovarian cancer cell lines were transduced for 24 hours with adenovirus expressing GFP (Ad-GFP) or adenovirus expressing GFP and SPARC (Ad-GFP-SPARC) in complete growth medium at a multiplicity of infection of 15 to 25 as described previously (Said et al., Am J Pathol, 170: 1054-63 (2007)).
Confluent monolayers (−106 cells, serum starved overnight) of wild type (WT) human ovarian cancer cell lines SKOV3 or OVCAR3, were stimulated with 50 μM lysophosphatidic acid (LPA) for 24 hours in the presence and absence of SPARC (10 μg/ml). Similarly, adenovirus-transduced SKOV3 and OVCAR3 were stimulated with 50 [M LPA for 24 to 48 hours. Alternatively, adenovirus-transduced SKOV3 and OVCAR3 were seeded onto confluent monolayers or cocultured with Meso301 for 24 to 48 hours. MCP-1 protein secreted in the conditioned medium (CM) of SKOV3 and OVCAR3 was determined by ELISA using a commercially available kit (RayBioTech, Inc., Norcross, Ga.). Controls included cells that were not stimulated (NS) with LPA.

[7] = tested on: MMP-2 and MMP-9; assay: Gelatin zymography of conditioned media
Procedure: Subconfluent monolayers of ovarian cancer cells, transduced or not with Ad-GFP and Ad-GFP-SPARC, were grown in six-well plates alone or in coculture with mesothelial cell monolayers and serum-starved in SFM overnight. U937 macrophages (2×10^6 cells/ml SFM) were cultured in 0.22-μm transwell chambers (Corning, Costar) alone, in cocultures without direct cell-cell contact with ovarian cancer cells, or in triple cultures with ovarian cancer cells and mesothelial cells for an additional 24 hours. LPA (50 μM) or exogenous SPARC (20 μg/ml) (SOURCE?) was included in some experiments. Cell culture conditioned media (CM) were collected, cleared by centrifugation, and concentrated five-fold using Centricon centrifugal filters (Millipore, Bedford, Mass.). […] CM equivalent to 200 μg of ovarian cancer cells, and/or U937 cells was analyzed by gelatin zymography as described previously (Said et al., Am J Pathol, 167: 1739-52 (2005)).

[8] = tested on: uPA; assay: uPA activity in conditioned medium, colorimetric assay; conditions: for inhibition of LPA-induced uPA activity: 24 hours
Procedure: uPA activity in CM of confluent monolayers (˜10^6 cells) of serum-starved SKOV3 and OVCAR3 was measured in WT cells stimulated for 24 hours with LPA (50 μM) in the presence and absence of SPARC (10 μg/ml). uPA activity in adenovirus-transduced SKOV3 and OVCAR3 stimulated or not with LPA, or cocultured with Meso301 monolayers, U937 macrophages (added in 0.22-μm transwell inserts), or in triple-culture systems was also measured. uPA activity in CM was measured using a commercially available colorimetric assay kit (Chemicon) according to the manufacturer's instructions. […] The results are mean±SEM of a representative of three independent experiments, each performed in duplicate. *P<0.05, compared to nonstimulated WT or Ad-GFP cells. **P<0.05, compared to matched WT or Ad-GFP condition. #P<0.05, compared to coculture of ovarian cancer cells with either Meso301 or U937 in two-cell culture systems.

[9] = tested on: PGE2; assay: PGE2 level in conditioned medium, enzyme immunoassay
Procedure: LPA (50 μM) or exogenous SPARC (20 μg/ml) (SOURCE?) was included in some experiments.
SKOV3 and OVCAR3 cells were treated as described in Example 6, and PGE2 level was determined in the CM using a commercially available enzyme immunoassay kit (Cayman Inc.) according to the manufacturer's instructions.

[10] = tested on: 8-isoprostane; assay: 8-isoprostane level in conditioned medium, enzyme immunoassay
Procedure: SKOV3 and OVCAR3 were treated as described in Example 6, and the level of 8-isoprostane was determined in the CM using a commercially available enzyme immunoassay kit (Cayman Inc.) according to the manufacturer's instructions.

[11] = tested on: IL-6; assay: IL-6 in conditioned medium, ELISA; conditions: U937
Procedure: SKOV3 and OVCAR3 cells, transduced or not with Ad-GFP or Ad-GFP-SPARC, and U937 cells were cultured individually, in cocultures, or in triple cultures with Meso301 cells for twenty four hours, and the conditioned medium was assayed for IL-6 by ELISA as described in Example 1. The results shown in FIG. 3 represent the mean±SEM of one of three independent experiments, each performed in duplicate. *P<0.05, compared to matched WT or Ad-GFP. **P<0.05, compared to double cultures in the absence of mesothelial cells.

[12] = either cell line (SKOV3, OVCAR3)

CCCCC[C@H](O)/C=C/[C@H]1[C@H](O)CC(=O)[C@@H]1C/C=C\CCCC(=O)O [PGE2, prostaglandin E2]
PGE2-stimulated proliferation [1]: concentration dependent
PGE2-stimulated proliferation [2]: concentration dependent
proinvasive effect of PGE2 [3]: concentration dependent
proinvasive effect of PGE2 [4]: concentration dependent
PGE2-induced NF-κB activation [5]: approximately three

lysophosphatidic acid [LPA]
increase of MCP-1 production after LPA stimulation ([6]; SKOV3 and OVCAR3, 48 hours): nine
levels of active MMP-9 after LPA stimulation ([7]; OVCAR3 CM, LPA 50 μM): significantly increased
levels of pro- and active MMP-9 after LPA stimulation ([7]; SKOV3 CM, LPA 50 μM): significantly increased
MMP-2 and MMP-9 activity after LPA ([7]; U937 CM, LPA 50 μM): significantly increased
LPA-induced increase in uPA activity ([8]; WT and Ad-GFP-transduced OVCAR3, LPA 50 μM): 4.5 fold
LPA-induced increase in uPA activity ([8]; WT and Ad-GFP-transduced SKOV3, LPA 50 μM): 4 fold
increase in PGE2 production by LPA stimulation ([9]; SKOV3 and OVCAR): 14 fold
increase in 8-isoprostane production by LPA stimulation ([10]; OVCAR): ~2.5 fold
increase in 8-isoprostane production by LPA stimulation ([10]; SKOV3): ~2.2 fold

B1: Secreted protein acidic and rich in cysteine (protein, listed as Homo sapiens)
chain: APQQEALPDETEVVEETVAEVTEVSVGANPVQVEVGEFDDGAEETEEEVVAENPCQNHHCKHGKVCELDENNTPMCVCQDPTSCPAPIGEFEKVCSNDNKTFDSSCHFFATKCTLEGTKKGHKLHLDYIGPCKYIPPCLDSELTEFPLRMRDWLKNVLVTLYERDEDNNLLTEKQKLRVKKIHENEKRLEAGDHPVELLARDFEKNYNMYIFPVHWQFGQLDQHPIDGYLSHTELAPLRAPLIPMEHCTTRFFETCDLDNDKYIALDEWAGCFGIKQKDIDKDLVI
notes: matrix-associated protein added to cultures at 10 or 20 μg/ml
inhibition of LPA-induced MCP-1 production ([6]; OVCAR3, 24 hours): 59%
inhibition of LPA-induced MCP-1 production ([6]; OVCAR3, 48 hours): 30%
inhibition of LPA-induced MCP-1 production ([6]; SKOV3, 24 hours): 54%
inhibition of LPA-induced MCP-1 production ([6]; SKOV3, 48 hours): 43%
effect on IL-6 levels [11]: Neither exogenous SPARC nor overexpression of SPARC in U937 had any effect
LPA-induced activity of MMP-2 and MMP-9 ([7]; U937 CM, SPARC 20 μg/ml): markedly decreased
attenuation of constitutive uPA activity in CM ([8]; OVCAR3): 29%
inhibition of LPA-induced uPA activity ([8]; OVCAR3, LPA 50 μM): 36%
attenuation of constitutive uPA activity in CM ([8]; SKOV3): 40%
inhibition of LPA-induced uPA activity ([8]; SKOV3, LPA 50 μM): 76%
suppression of LPA-induced PGE2 production [9, 12]: 40%
decrease of baseline production of PGE2 ([9]; serum-starved SKOV3 and OVCAR3): up to 30%
suppression of LPA-induced 8-isoprostane production [10, 12]: up to 26%
decrease of basal 8-isoprostane (ROS) production ([10]; serum starved SKOV3 and OVCAR3): 70%
